Test results: the supplement of paper PMC10307832

How the values were obtained:
Test in all cases: relative viability (nuclei count vs DMSO), 5 days (fraction); higher = more cells survive
Bortezomib + Foretinib = compound: CC(C)C[C@H](NC(=O)[C@H](Cc1ccccc1)NC(=O)c1cnccn1)B(O)O [Bortezomib] + COc1cc2c(Oc3ccc(NC(=O)C4(C(=O)Nc5ccc(F)cc5)CC4)cc3F)ccnc2cc1OCCCN1CCOCC1 [Foretinib] (partner 0.25 µM)
Procedure, shortened: (§1)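 Five library-drug doses in √10 steps were combined with a fixed anchor-drug dose, or a single drug was given alone, by pin tool to lung cancer cell lines in 1536-well plates the day after seeding. Nuclei were stained and counted after 5 days. Relative viability is the nuclei count in treated wells over that in vehicle wells, taken as the median of duplicate plates.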

Obatoclax + Navitoclax = compound: COC1=CC(c2cc3ccccc3[nH]2)=N/C1=C\c1[nH]c(C)cc1C [Obatoclax] + CC1(C)CCC(c2ccc(Cl)cc2)=C(CN2CCN(c3ccc(C(=O)NS(=O)(=O)c4ccc(N[C@H](CCN5CCOCC5)CSc5ccccc5)c(S(=O)(=O)C(F)(F)F)c4)cc3)CC2)C1 [Navitoclax] (partner 0.5 µM)
Procedure, shortened: as §1

[1] = compound: CC1=CC(=NN1)NC2=CC(=NC(=N2)/C=C/C3=CC=CC=C3)N4CCN(CC4)C + CC1(C)CCC(c2ccc(Cl)cc2)=C(CN2CCN(c3ccc(C(=O)NS(=O)(=O)c4ccc(N[C@H](CCN5CCOCC5)CSc5ccccc5)c(S(=O)(=O)C(F)(F)F)c4)cc3)CC2)C1 [Navitoclax] (partner 0.5 µM)
Procedure, shortened: as §1

Bortezomib + Decitabine = compound: CC(C)C[C@H](NC(=O)[C@H](Cc1ccccc1)NC(=O)c1cnccn1)B(O)O [Bortezomib] + Nc1ncn([C@H]2C[C@H](O)[C@@H](CO)O2)c(=O)n1 [Decitabine] (partner 2 µM)
Procedure, shortened: as §1

| Cell Line | relative viability (Bortezomib + Foretinib; first compound 0.0002 µM) | relative viability (Bortezomib + Foretinib; first compound 0.000632 µM) | relative viability (Bortezomib + Foretinib; first compound 0.002 µM) | relative viability (Bortezomib + Foretinib; first compound 0.006325 µM) | relative viability (Bortezomib + Foretinib; first compound 0.02 µM) | relative viability (Obatoclax + Navitoclax; first compound 0.01 µM) | relative viability (Obatoclax + Navitoclax; first compound 0.03162 µM) | relative viability (Obatoclax + Navitoclax; first compound 0.3162 µM) | relative viability (Obatoclax + Navitoclax; first compound 1 µM) | relative viability ([1]; first compound 0.08 µM) | relative viability ([1]; first compound 0.253 µM) | relative viability ([1]; first compound 0.8 µM) | relative viability ([1]; first compound 2.53 µM) | relative viability ([1]; first compound 8 µM) | relative viability (Bortezomib + Decitabine; first compound 0.0002 µM) | relative viability (Bortezomib + Decitabine; first compound 0.000632 µM) | relative viability (Bortezomib + Decitabine; first compound 0.002 µM) | relative viability (Bortezomib + Decitabine; first compound 0.006325 µM) | relative viability (Bortezomib + Decitabine; first compound 0.02 µM) | relative viability (Obatoclax + Navitoclax; first compound 0.1 µM) |
| --- | --- | --- | --- | --- | --- | --- | --- | --- | --- | --- | --- | --- | --- | --- | --- | --- | --- | --- | --- | --- |
| ChaGo-K-1 | 0.837 | 0.822 | 0.992 | 0.245 | 0.185 | 0.956 | 0.669 | 0.955 | 1.32 | 0.893 | 1.12 | 1.24 | 0.298 | 0.272 | 0.49 | 0.444 | 0.561 | 0.444 | 0.161 |  |
| EBC-1 | 0.11 | 0.106 | 0.0957 | 0.0676 | 0.0605 | 0.449 | 0.379 | 0.16 | 0.177 | 0.387 | 0.396 | 0.285 | 0.154 | 0.147 |  |  |  |  |  | 0.395 |
| EKVX | 0.847 | 0.843 | 0.897 | 0.872 | 0.21 | 0.86 | 0.618 | 0.924 | 0.922 | 0.946 | 1.24 | 1.03 | 0.755 | 0.131 | 0.36 | 0.393 | 0.431 | 0.25 | 0.0809 | 0.98 |
| EMC-BAC-2 | 0.993 | 1.03 | 1.13 | 0.279 | 0.203 | 1.15 | 1.18 | 1.19 | 1.22 | 1.1 | 1.11 | 1.07 | 0.719 | 0.266 | 1.07 | 0.987 | 0.828 | 0.559 | 0.196 | 1.13 |
| EPLC-272H | 0.7 | 0.506 | 0.148 | 0.0867 | 0.0676 | 1.1 | 1.16 | 1.03 | 1.26 | 1.07 | 1.32 | 0.987 | 0.598 | 0.339 | 0.378 | 0.348 | 0.321 | 0.0848 | 0.065 | 1.38 |
| H3255 | 0.763 | 0.994 | 0.935 | 0.638 | 0.283 | 0.517 | 0.544 | 0.537 | 0.438 | 0.518 | 0.61 | 0.517 | 0.43 | 0.0832 | 0.587 | 0.583 | 0.316 | 0.192 | 0.204 | 0.681 |
| HARA | 0.851 | 0.866 | 0.928 | 0.0716 | 0.0683 | 1.09 | 1.11 | 0.871 | 1.11 | 1.17 | 1.16 | 1.13 | 0.982 | 0.238 | 0.459 | 0.569 | 0.415 | 0.125 | 0.124 | 1.15 |
| HCC-15 | 0.933 | 1.09 | 0.628 | 0.0908 | 0.0905 | 0.726 | 0.726 | 0.569 | 0.469 | 0.67 | 0.731 | 0.612 | 0.409 | 0.118 | 0.626 | 0.619 | 0.598 | 0.111 | 0.114 | 0.645 |
